Legend:
[1] = Ratio of EC50 for HCV genotype 1a H77 infected in human HuH7 cells in presence of 10% BSA to plasma concentration in fasted healthy human at 3 mg/kg, po at 24 hrs; design: species or system Huh-7
[2] = Ratio of EC50 for HCV genotype 1a H77 infected in human HuH7 cells in presence of human serum to plasma concentration in fasted healthy human at 3 mg/kg, po at 24 hrs; design: species or system Huh-7
[3] = Half life in fasted healthy human at 100 mg/kg, po; type: ADME, organism-based; design: dose 100 mg/kg, route oral; details: in vivo
[4] = Plasma concentration in fasted healthy human at 100 mg/kg, po at 24 hrs; type: ADME, organism-based; design: dose 100 mg/kg, route oral
[5] = AUC (infinity) in fasted healthy human at 100 mg/kg, po; type: ADME, organism-based; design: time infinity, dose 100 mg/kg, route oral; details: plasma
[6] = Tmax in fasted healthy human at 100 mg/kg, po; type: ADME, organism-based; design: dose 100 mg/kg, route oral; details: in vivo
[7] = AUClast in fasted healthy human at 100 mg/kg, po; type: ADME, organism-based; design: time 0 - last, dose 100 mg/kg, route oral; details: plasma
[8] = Cmax in fasted healthy human at 100 mg/kg, po; type: ADME, organism-based; design: dose 100 mg/kg, route oral; details: in vivo
[9] = Plasma concentration in fasted healthy human at 60 mg/kg, po at 24 hrs; type: ADME, organism-based; design: dose 60 mg/kg, route oral
[10] = AUC (infinity) in fasted healthy human at 60 mg/kg, po; type: ADME, organism-based; design: time infinity, dose 60 mg/kg, route oral; details: plasma
[11] = Half life in fasted healthy human at 60 mg/kg, po; type: ADME, organism-based; design: dose 60 mg/kg, route oral; details: in vivo
[12] = AUClast in fasted healthy human at 60 mg/kg, po; type: ADME, organism-based; design: dose 60 mg/kg, route oral, time 0 - last; details: plasma
[13] = Tmax in fasted healthy human at 60 mg/kg, po; type: ADME, organism-based; design: dose 60 mg/kg, route oral; details: in vivo
[14] = Cmax in fasted healthy human at 60 mg/kg, po; type: ADME, organism-based; design: dose 60 mg/kg, route oral; details: in vivo
[15] = Plasma concentration in fasted healthy human at 30 mg/kg, po at 24 hrs; type: ADME, organism-based; design: dose 30 mg/kg, route oral
[16] = Half life in fasted healthy human at 30 mg/kg, po; type: ADME, organism-based; design: dose 30 mg/kg, route oral; details: in vivo
[17] = AUClast in fasted healthy human at 30 mg/kg, po; type: ADME, organism-based; design: time 0 - last, dose 30 mg/kg, route oral; details: plasma
[18] = AUC (infinity) in fasted healthy human at 30 mg/kg, po; type: ADME, organism-based; design: time infinity, dose 30 mg/kg, route oral; details: plasma
[19] = Tmax in fasted healthy human at 30 mg/kg, po; type: ADME, organism-based; design: dose 30 mg/kg, route oral; details: in vivo
[20] = Plasma concentration in fasted healthy human at 10 mg/kg, po at 24 hrs; type: ADME, organism-based; design: dose 10 mg/kg, route oral
[21] = Cmax in fasted healthy human at 30 mg/kg, po; type: ADME, organism-based; design: dose 30 mg/kg, route oral; details: in vivo
[22] = Half life in fasted healthy human at 10 mg/kg, po; type: ADME, organism-based; design: dose 10 mg/kg, route oral; details: in vivo
[23] = AUC (infinity) in fasted healthy human at 10 mg/kg, po; type: ADME, organism-based; design: time infinity, dose 10 mg/kg, route oral; details: plasma
[24] = Tmax in fasted healthy human at 10 mg/kg, po; type: ADME, organism-based; design: dose 10 mg/kg, route oral; details: in vivo
[25] = AUClast in fasted healthy human at 10 mg/kg, po; type: ADME, organism-based; design: time 0 - last, dose 10 mg/kg, route oral; details: plasma
[26] = Cmax in fasted healthy human at 10 mg/kg, po; type: ADME, organism-based; design: dose 10 mg/kg, route oral; details: in vivo
[27] = Plasma concentration in fasted healthy human at 3 mg/kg, po at 24 hrs; type: ADME, organism-based; design: dose 3 mg/kg, route oral
[28] = Half life in fasted healthy human at 3 mg/kg, po; type: ADME, organism-based; design: dose 3 mg/kg, route oral; details: in vivo
[29] = AUC (infinity) in fasted healthy human at 3 mg/kg, po; type: ADME, organism-based; design: time infinity, dose 3 mg/kg, route oral; details: plasma
[30] = AUClast in fasted healthy human at 3 mg/kg, po; type: ADME, organism-based; design: time 0 - last, dose 3 mg/kg, route oral; details: plasma
[31] = Tmax in fasted healthy human at 3 mg/kg, po; type: ADME, organism-based; design: dose 3 mg/kg, route oral; details: in vivo
[32] = Cmax in fasted healthy human at 3 mg/kg, po; type: ADME, organism-based; design: dose 3 mg/kg, route oral; details: in vivo

- half-life [3]: 39.5 h
- concentration at 24 h [4]: 98.8 nM
- AUC(0-inf) [5]: 8.66 µM·h
- Tmax [6]: 5.5 h
- AUC(0-t) [7]: 7.05 µM·h
- Cmax [8]: 242 nM
- concentration at 24 h [9]: 56.4 nM
- AUC(0-inf) [10]: 5.3 µM·h
- half-life [11]: 44.2 h
- AUC(0-t) [12]: 4.01 µM·h
- Tmax [13]: 5.5 h
- Cmax [14]: 133 nM
- concentration at 24 h [15]: 31.4 nM
- half-life [16]: 37.2 h
- AUC(0-t) [17]: 2.24 µM·h
- AUC(0-inf) [18]: 2.72 µM·h
- Tmax [19]: 5.75 h
- concentration at 24 h [20]: 7.94 nM
- Cmax [21]: 82.2 nM
- half-life [22]: 42.4 h
- AUC(0-inf) [23]: 0.695 µM·h
- Tmax [24]: 5 h
- AUC(0-t) [25]: 0.558 µM·h
- Cmax [26]: 21.3 nM
- concentration at 24 h [27]: 2.45 nM
- half-life [28]: 45.2 h
- AUC(0-inf) [29]: 0.245 µM·h
- AUC(0-t) [30]: 0.14 µM·h
- Tmax [31]: 5.25 h
- Cmax [32]: 6.75 nM
SMILES: COC(=O)N[C@H](C(=O)N1CC2(CC2)C[C@H]1c1nc(-c2ccc3c(c2)C(F)(F)c2cc(-c4ccc5[nH]c([C@@H]6[C@H]7CC[C@H](C7)N6C(=O)[C@@H](NC(=O)OC)C(C)C)nc5c4)ccc2-3)c[nH]1)C(C)C
- Ratio [1]: 12
- Ratio [2]: 12

Source: ChEMBL document CHEMBL3120075 (J Med Chem, 2014)
